Reference: ChEMBL document CHEMBL1138645, “Carbonic anhydrase inhibitors. Interaction of isozymes I, II, IV, V, and IX with phosphates, carbamoyl phosphate, and the phosphonate antiviral drug foscarnet” (Bioorg Med Chem Lett, 2004)

What was measured:
[1] = target: T1, Carbonic anhydrase 1 (Homo sapiens, UniProt P00915); assay: Inhibition constant of anion against human carbonic anhydrase isozyme hCA I
[2] = target: Carbonic anhydrase 2 (Homo sapiens, UniProt P00918); assay: Inhibition constant of anion against human carbonic anhydrase isozyme hCA II
[3] = target: Carbonic anhydrase 4 (Homo sapiens, UniProt P22748); assay: Inhibition constant of anion against human carbonic anhydrase isozyme hCA IV
[4] = target: Carbonic anhydrase 9 (Homo sapiens, UniProt Q16790); assay: Inhibition constant of anion against human carbonic anhydrase isozyme hCA IX
[5] = target: Carbonic anhydrase V (Homo sapiens, UniProt Q9Y2D0+P35218); assay: Inhibition constant of anion against human carbonic anhydrase isozyme hCA V; type: protein assay
[6] = target: T1, Carbonic anhydrase 1; assay: Inhibition constant of anion against human carbonic anhydrase isozyme hCA I; A = activator

Sequence of Carbonic anhydrase 4 (P22748 whole entry): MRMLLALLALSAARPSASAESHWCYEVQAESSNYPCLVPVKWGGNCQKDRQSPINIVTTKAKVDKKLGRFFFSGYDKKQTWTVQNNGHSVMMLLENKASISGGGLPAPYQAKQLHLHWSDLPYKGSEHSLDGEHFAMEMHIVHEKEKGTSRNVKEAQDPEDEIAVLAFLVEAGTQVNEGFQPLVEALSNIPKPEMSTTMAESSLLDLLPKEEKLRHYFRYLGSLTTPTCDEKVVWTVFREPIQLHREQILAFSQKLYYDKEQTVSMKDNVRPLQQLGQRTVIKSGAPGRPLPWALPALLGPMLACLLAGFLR
T1 sequence (P00915 whole entry): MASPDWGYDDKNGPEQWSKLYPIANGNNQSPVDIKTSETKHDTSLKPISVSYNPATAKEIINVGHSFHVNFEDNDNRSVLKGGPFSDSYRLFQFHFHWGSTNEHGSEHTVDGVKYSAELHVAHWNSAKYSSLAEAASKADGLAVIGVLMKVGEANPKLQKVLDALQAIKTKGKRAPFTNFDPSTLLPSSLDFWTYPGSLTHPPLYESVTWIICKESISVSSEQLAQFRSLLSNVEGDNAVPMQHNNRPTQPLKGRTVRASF

In the case of `NC(=O)OP(=O)([O-])[O-].[Na+].[Na+]` [CARBAMOYL PHOSPHATE; DI SODIUM], the Ki [1] is reported as 0.0094 mM, the Ki [2] is reported as 0.31 mM and the Ki [3] is reported as 0.0099 mM. The Ki [4] was 3.06 mM and the Ki [5] was 0.0085 mM.
`O=C([O-])P(=O)([O-])[O-].[Na+].[Na+].[Na+]` [FOSCARNET SODIUM] showed a Ki [2] of 14.2 mM, a Ki [3] of 0.82 mM and a Ki [4] of 2.21 mM. The Ki [6] was “Activator” and the Ki [5] was 41.7 mM.
Compound `O=C([O-])O.[Na+]` [SODIUM BICARBONATE] has a Ki [3] of 6.6 mM, a Ki [4] of 13 mM and a Ki [5] of 82 mM.
With `O=C([O-])[O-].[Na+].[Na+]` [SODIUM CARBONATE] the Ki [3] was 5.7 mM and the Ki [5] was 95 mM.
`O=C[O-].[Na+]` [SODIUM FORMATE] was tested, and the Ki [2] was 24 mM, the Ki [4] was 1.22 mM and the Ki [6] was “Activator”. It also gave a Ki [5] of 9.97 mM.
For `O=P([O-])([O-])O.[Na+].[Na+]` [SODIUM PHOSPHATE, DIBASIC, ANHYDROUS], the Ki [6] was “Activator” and the Ki [5] was 4.49 mM.
`O=P([O-])(O)O.[Na+]` [SODIUM PHOSPHATE, MONOBASIC] was tested, and the Ki [6] was “Activator” and the Ki [5] was 3.3 mM.
